Experimental data published in ChEMBL document CHEMBL4477221, “Discovery and Structure-Based Optimization of 2-Ureidothiophene-3-carboxylic Acids as Dual Bacterial RNA Polymerase and Viral Reverse Transcriptase Inhibitors” (J Med Chem, 2016).
Converted amounts (≈) assume the structure as drawn. The source made the active and inactive calls. No cut-off for these calls is given here.

Columns and labels:
[1] = biological target: Human immunodeficiency virus type 1 reverse transcriptase (Human immunodeficiency virus 1) (UniProt Q72547); experiment: Inhibition of HIV1 reverse transcriptase using T19-Cy5 labeled 23-mer DNA/T2-TAMRA labeled 63-mer DNA as primer/template assessed as inhibition of dNTP incorporation into primer/template at 1 uM relative to control
[2] = Inhibition of Escherichia coli RNA polymerase
[3] = biological target: Human immunodeficiency virus type 1 reverse transcriptase (Human immunodeficiency virus 1, UniProt Q72547); experiment: Inhibition of HIV1 reverse transcriptase using T19-Cy5 labeled 23-mer DNA/T2-TAMRA labeled 63-mer DNA as primer/template assessed as inhibition of dNTP incorporation into primer/template
[4] = biological target: Human immunodeficiency virus type 1 reverse transcriptase (Human immunodeficiency virus 1) (UniProt Q72547); experiment: Inhibition of TAMRA-labeled primer/template duplex binding to HIV1 Alexa 488-labeled reverse transcriptase by FRET assay
[5] = biological target: Human immunodeficiency virus type 1 reverse transcriptase (Human immunodeficiency virus 1) (UniProt Q72547); experiment: Effect on binding orientation of HIV1 Alexa 488-labeled reverse transcriptase to TAMRA-labeled primer/template duplex by FRET assay
[6] = test system: Human immunodeficiency virus 1; experiment: Binding affinity to bodipy-labeled HIV1 reverse transcriptase p66 W24C/K287C double mutant assessed as induction of p66 thumb and finger domain open conformation at 3 uM by fluorescence spectroscopic analysis
[7] = test system: Staphylococcus aureus; experiment: Antibacterial activity against Staphylococcus aureus; format: functional
[8] = test system: Human immunodeficiency virus 1; experiment: Antiviral activity against HIV1 pseudoparticle expressing Gag, Gag-pol, RRE, and vesicular stomatitis virus-G protein assessed as inhibition of pseudoparticles entry into human HeLa cells pretreated for 30 mins followed by pseudoparticle addition measured 24 hrs post infection by luciferase reporter gene assay; format: functional, organism-based
[9] = Cytotoxicity against human HeLa cells infected with HIV1 pseudoparticle expressing Gag, Gag-pol, RRE, and vesicular stomatitis virus-G protein assessed as inhibition of cell viability at 25 uM preincubated with cells for 30 mins followed by pseudoparticle addition measured 24 hrs post infection by MTT assay relative to control; format: cell-based; details: read-out: INH
[10] = Cytotoxicity against HEK293 cells; format: cell-based; details: human, read-out: LD50 (the source's name)
[11] = test system: Human immunodeficiency virus 1; experiment: Antiviral activity against wild type HIV1 NL4-3 assessed as inhibition of viral infection in human TZM-bl cells after 48 hrs by luciferase reporter gene assay; format: functional, organism-based; details: Human immunodeficiency virus 1, NL4-3, TZM-bl
[12] = test system: Human immunodeficiency virus 1; experiment: Antiviral activity against NNRTI resistant HIV1 harboring reverse transcriptase V106I/Y181C/G190A/H221Y mutant assessed as inhibition of viral infection in human TZM-bl cells after 48 hrs by luciferase reporter gene assay; format: functional, organism-based; details: Human immunodeficiency virus 1, TZM-bl
[13] = Ratio of IC50 for NNRTI resistant HIV1 harboring reverse transcriptase A98G/K101E/Y181C/G190A mutant infected in human TZM-bl cells to IC50 for wild type HIV1 NL4-3 infected in human TZM-bl cells; format: functional
[14] = Ratio of IC50 for NNRTI resistant HIV1 harboring reverse transcriptase K103N/V179F/Y181C mutant infected in human TZM-bl cells to IC50 for wild type HIV1 NL4-3 infected in human TZM-bl cells; format: functional
[15] = Ratio of IC50 for NNRTI resistant HIV1 harboring reverse transcriptase L100I/K103N/H221Y mutant infected in human TZM-bl cells to IC50 for wild type HIV1 NL4-3 infected in human TZM-bl cells; format: functional
[16] = biological target: Human immunodeficiency virus type 1 reverse transcriptase (Human immunodeficiency virus 1) (UniProt Q72547); experiment: Inhibition of HIV1 reverse transcriptase using T19-Cy5 labeled 23-mer DNA/T2-TAMRA labeled 63-mer DNA as primer/template assessed as inhibition of dNTP incorporation into primer/template at 25 uM relative to control
[17] = test system: Human immunodeficiency virus 1; experiment: Antiviral activity against wild type HIV1 NL4-3; format: functional, organism-based; details: Human immunodeficiency virus 1, NL4-3
[18] = biological target: Human immunodeficiency virus type 1 reverse transcriptase (Human immunodeficiency virus 1) (UniProt Q72547); experiment: Inhibition of HIV1 reverse transcriptase using T19-Cy5 labeled 23-mer DNA/T2-TAMRA labeled 63-mer DNA as primer/template assessed as inhibition of dNTP incorporation into primer/template at 10 uM relative to control
[19] = test system: Human immunodeficiency virus 1; experiment: Binding affinity to bodipy-labeled HIV1 reverse transcriptase p66 W24C/K287C double mutant assessed as induction of p66 thumb and finger domain open conformation by measuring increase in bodipy fluorescence at 10 uM by stopped flow kinetic analysis
[20] = Human immunodeficiency virus 1, HeLa, read-out: IC50

CCN(Cc1ccccc1)C(=O)Nc1scc(-c2ccc(Cl)c(Cl)c2)c1C(=O)O
inhibition [1]: 12% | IC50 [2]: 57 µM

CC(=O)Nc1ccc(NC(=O)Nc2sc(-c3ccc(Cl)c(Cl)c3)cc2C(=O)O)cc1
IC50 [3]: 0.6 µM | IC50 [2]: 27 µM | Activity [4]: inactive | Activity [5]: inactive | Activity [6]: inactive

CS(=O)(=O)Nc1ccc(NC(=O)Nc2sc(-c3ccc(Cl)c(Cl)c3)cc2C(=O)O)cc1
IC50 [3]: 0.1 µM | IC50 [2]: 26 µM | Activity [4]: inactive | Activity [5]: inactive | Activity [6]: inactive | MIC [7]: 39 µg/mL (≈ 77.9 µM) | IC50 [8, 20]: 30 µM | cytotoxicity at 24 h, 25 µM [9]: 0% | CC50 [10]: > 100 µM | IC50 [11]: 5 µM | IC50 [12]: 1.5 µM | Ratio IC50 [13]: 3.5 | Ratio IC50 [14]: >4 | Ratio IC50 [15]: >4

CCN(Cc1ccccc1)C(=O)Nc1cc(-c2ccc(Cl)c(Cl)c2)sc1C(=O)O
inhibition [16]: 24% | IC50 [2]: 22 µM

O=C(Nc1ccc(NS(=O)(=O)c2ccccc2)cc1)Nc1sc(-c2ccc(Cl)c(Cl)c2)cc1C(=O)O
IC50 [3]: 0.9 µM | IC50 [2]: 8 µM | Activity [4]: inactive | Activity [5]: inactive | Activity [6]: inactive | MIC [7]: 3 µg/mL (≈ 5.33 µM) | CC50 [10]: 94 µM | IC50 [11]: 15 µM | IC50 [12]: > 1.5 µM | Ratio IC50 [13]: 1 | Ratio IC50 [14]: >1.5 | Ratio IC50 [15]: >1.5

O=C(Cn1cncn1)Nc1ccc(NC(=O)Nc2sc(-c3ccc(Cl)c(Cl)c3)cc2C(=O)O)cc1
IC50 [3]: 0.8 µM | IC50 [2]: 40 µM | Activity [4]: inactive | Activity [5]: inactive | Activity [6]: inactive

Cc1cc(C#N)cc(C)c1Oc1nc(Nc2ccc(C#N)cc2)nc(N)c1Br [ETRAVIRINE]
IC50 [17]: 0.005 µM | IC50 [12]: 6 µM | Ratio IC50 [13]: 15 | Ratio IC50 [14]: 8.8 | Ratio IC50 [15]: 6.8

CCN(Cc1ccccc1)C(=O)Nc1cc(-c2ccc(Cl)cc2)sc1C(=O)O
inhibition [16]: 12% | IC50 [2]: 75 µM

O=C(Nc1ccc(F)cc1)Nc1sc(-c2ccc(Cl)c(Cl)c2)cc1C(=O)O
IC50 [3]: 0.7 µM | IC50 [2]: 14 µM | Activity [4]: inactive | Activity [5]: inactive | Activity [6]: inactive | MIC [7]: 4 µg/mL (≈ 9.41 µM) | IC50 [8]: Not Active | cytotoxicity at 24 h, 25 µM [9]: 0% | CC50 [10]: 68 µM

CCN(Cc1ccccc1)C(=O)Nc1c(-c2ccc(Cl)c(Cl)c2)csc1C(=O)O
inhibition [18]: 4% | IC50 [2]: 100 µM

COc1ccc(NC(=O)Nc2sc(-c3ccc(Cl)c(Cl)c3)cc2C(=O)O)cc1
IC50 [3]: 0.8 µM | IC50 [2]: 22 µM | Activity [4]: inactive | Activity [5]: inactive | Activity [6]: inactive | MIC [7]: 8 µg/mL (≈ 18.3 µM) | IC50 [8, 20]: 35 µM | cytotoxicity at 24 h, 25 µM [9]: 12% | CC50 [10]: 80 µM

CN(C)S(=O)(=O)Nc1ccc(NC(=O)Nc2sc(-c3ccc(Cl)c(Cl)c3)cc2C(=O)O)cc1
IC50 [3]: 0.6 µM | IC50 [2]: 23 µM | Activity [4]: inactive | Activity [5]: inactive | Activity [6]: inactive | MIC [7]: 13 µg/mL (≈ 24.6 µM) | CC50 [10]: > 100 µM

Cc1cn([C@H]2C[C@H](N=[N+]=[N-])[C@@H](CO[P@](=O)(O)O[P@](=O)(O)OP(=O)(O)O)O2)c(=O)[nH]c1=O [ZIDOVUDINE TRIPHOSPHATE]
IC50 [3]: 7 µM

CCN(Cc1ccccc1)C(=O)Nc1scc(-c2ccc(Cl)cc2)c1C(=O)O
inhibition [1]: 12% | IC50 [2]: > 100 µM

COC(=O)Nc1ccc(NC(=O)Nc2sc(-c3ccc(Cl)c(Cl)c3)cc2C(=O)O)cc1
IC50 [3]: 0.3 µM | IC50 [2]: 19 µM | Activity [4]: inactive | Activity [5]: inactive | Activity [6]: inactive | MIC [7]: 25 µg/mL (≈ 52 µM) | IC50 [8, 20]: 30 µM | cytotoxicity at 24 h, 25 µM [9]: 6% | CC50 [10]: 86 µM

O=C(NCc1ccccc1)Nc1sc(-c2ccc(Cl)c(Cl)c2)cc1C(=O)O
inhibition [16]: 64% | IC50 [2]: 43 µM

O=C(Nc1ccccc1)Nc1sc(-c2ccc(Cl)c(Cl)c2)cc1C(=O)O
IC50 [3]: 1.2 µM | IC50 [2]: 20 µM | Activity [4]: inactive | Activity [5]: inactive | Activity [6]: inactive | Activity [19]: inactive | MIC [7]: 6 µg/mL (≈ 14.7 µM) | IC50 [8, 20]: 20 µM | cytotoxicity at 24 h, 25 µM [9]: 0% | CC50 [10]: 61 µM | IC50 [11]: 5 µM | IC50 [12]: 1 µM | Ratio IC50 [13]: 3 | Ratio IC50 [14]: >4 | Ratio IC50 [15]: >4

O=C1Nc2ccc(Cl)cc2[C@@](C#CC2CC2)(C(F)(F)F)O1 [EFAVIRENZ]
IC50 [12]: 26 µM

CCN(Cc1ccccc1)C(=O)Nc1sc(-c2ccc(Cl)cc2)cc1C(=O)O
inhibition [1]: 12% | IC50 [2]: 54 µM

Cc1cc(/C=C/C#N)cc(C)c1Nc1ccnc(Nc2ccc(C#N)cc2)n1 [RILPIVIRINE]
IC50 [17]: 0.0009 µM | IC50 [12]: 3.5 µM | Ratio IC50 [13]: 22 | Ratio IC50 [14]: 2.3 | Ratio IC50 [15]: 6.3

CCN(Cc1ccccc1)C(=O)Nc1c(-c2ccc(Cl)cc2)csc1C(=O)O
inhibition [18]: 13% | IC50 [2]: > 200 µM

O=C(O)c1cc(-c2ccc(Cl)c(Cl)c2)sc1NC(=O)N(Cc1ccccc1)Cc1ccccc1
inhibition [16]: 63% | IC50 [2]: 7 µM

Cc1ccnc2c1NC(=O)c1cccnc1N2C1CC1 [NEVIRAPINE]
IC50 [2]: > 200 µM | Activity [19]: Active | IC50 [17]: 0.1 µM | IC50 [12]: > 200 µM

Nc1ccc(NC(=O)Nc2sc(-c3ccc(Cl)c(Cl)c3)cc2C(=O)O)cc1
inhibition [16]: 64% | IC50 [2]: 53 µM

CCN(Cc1ccccc1)C(=O)Nc1sc(-c2ccc(Cl)c(Cl)c2)cc1C(=O)O
IC50 [3]: 0.9 µM | IC50 [2]: 21 µM | Activity [4]: inactive | Activity [5]: inactive | Activity [6]: inactive | MIC [7]: 10 µg/mL (≈ 22.3 µM) | IC50 [8, 20]: 27 µM | cytotoxicity at 24 h, 25 µM [9]: 23% | CC50 [10]: 58 µM
